Assay [1] relates to LTB4-induced dermal inflammation. Kind of assay: Rabbit model of LTB4-induced dermal inflammation, histopathology of intradermal challenge sites. In kind it is in vivo, New Zealand White Rabbits. On the set-up: key to Inflammation score / Edema score: 0=normal; T=trace; 1=minimal; 2=mild; 3=moderate; 4=marked. As to conditions: test article IP 60 mg/kg (dexamethasone 0.5 mg/kg); for Edema score / Inflammation score: 4 hr after challenge; for Histopathology finding: reduction of inflammation and edema: summary in words. Here is the method:
Test compounds were prepared as follows. The vehicle was first prepared by dissolving […] of hydroxypropylmethylcellulose 2910 (HPMC)(Sigma Chemical, St. Louis, Mo.) in 50 mL of 0.9% saline to yield a concentration of 2% HPMC. The three test articles, (R)-, (S)- and racemic tofisopam, were formulated by adding 1 g of each test article to 10 mL of vehicle.
On Day 0, the rabbits were sedated with ketamine/xylazine (35/5 mg/kg, s.c.) and an area of approximately 8×14 cm on the back was closely and carefully clipped to expose the skin, but not inflame or otherwise damage the epithelium. A grid of ten squares each approximately 2.5×2.5 cm was drawn on each animal's back using an indelible marker. The animals were then dosed intraperitoneally with the appropriate test article corresponding to the group. Thirty minutes after dosing with test or control article, the animals were challenged intradermally with the LTB4 or LTB4-aminopropamide (LTB4-AP, a synthetic LTB4 agonist) in the appropriate site as shown in Table 4. Each injection site was marked with an indelible marker in order to identify the exact location of the intradermal injection site. Sixty minutes after challenge, the animals were treated again with tofisopam or control articles. The animals were sacrificed 4 hrs. after challenge, and the intradermal injection sites were excised, fixed in 10% neutral buffered formalin (NBF), and submitted for histopathology. H&E-stained sections were read by a board-certified veterinary pathologist using light microscopy.
All animals were sacrificed 4 hr after challenge. The intradermal challenge sites were excised, placed on unique cardboard squares, fixed in 10% NBF, and submitted for histopathology. The skin sections included the epidermis and the subcutis, down to the back musculature.
The marked skin sections were fixed for at least 48 hours on small cardboard squares. At gross trimming, three levels were cut through marked skin region in order to assure that the injection sites is brought into the plane of section. The skins were gross trimmed, processed by dehydration, embedded in paraffin, sectioned at 3-5 μm, and stained with hematoxylin and eosin.
The tissues were evaluated histopathologically via light microscopy by a board-certified veterinary pathologist. Initially, the identity of the slides was masked in order to perform the initial evaluation and rank the slides. The slides were then unmasked and there was a careful assessment of the lesions and careful comparison of the tofisopam-treated sites to the vehicle and positive control tissues. The lesions were graded based upon the degree of inflammation and the degree of edema. The severity of the inflammation and edema was keyed as follows: 0=normal; T=trace; 1=minimal; 2=mild; 3=moderate; 4=marked.

For assay [2], the system named is lymphocyte. The following applies: in vitro; cited from earlier work.
Assay [3] addresses peripheral BZ receptors (Homo sapiens, UniProt P30536). The following applies: cited from earlier work.
Assay [4] deals with IL-2 production. The following applies: in vitro; cited from earlier work.
Assay [5] relates to central BZ receptors. As to conditions: cited from earlier work.
Where [6] appears, read: injection site: LTB4 2000 ng, listed as (R,S)-tofisopam.
Setting [7] is: injection site: LTB-ap 2000 ng, listed as (R,S)-tofisopam.

Where “and” joins values, the source holds several entries; their conditions need not be identical. Equal entries are not always repeated.

Data on three molecules can be found in patent US6864251B2, “Treatment of LTB4-mediated inflammatory disorders with optically-pure (R)-2,3-benzodiazepines” (Vela Pharmaceuticals, Inc., priority 2002, dated 2005).

peripheral BZ receptors, sequence (P30536 whole entry): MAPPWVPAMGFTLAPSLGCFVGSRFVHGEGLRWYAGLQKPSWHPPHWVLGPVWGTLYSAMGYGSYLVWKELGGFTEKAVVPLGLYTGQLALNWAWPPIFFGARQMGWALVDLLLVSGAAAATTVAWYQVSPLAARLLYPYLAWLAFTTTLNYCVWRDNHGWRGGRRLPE

For the molecule `CC[C@H]1C(C)=NN=C(c2ccc(OC)c(OC)c2)c2cc(OC)c(OC)cc21` [(R)-tofisopam, (R)-1-(3,4-dimethoxyphenyl)-4-methyl-5-ethyl-7,8-dimethoxy-5H-2,3-benzodiazepine], the Edema score in assay [1] (injection site: LTB4 500 ng) was 1 and 3; in assay [1] (injection site: LTB4 1000 ng), 2 and 3; in assay [1] (injection site: LTB4 2000 ng), 2 and 3; in assay [1] (injection site: LTB-ap 500 ng), 1 and 3; in assay [1] (injection site: LTB-ap 1000 ng), 2 and 3; in assay [1] (injection site: LTB-ap 2000 ng), 2 and 3 and 1. Moreover, the Edema score in assay [1] (injection site: Vehicle 0 ng) is 0 and 1 and 2. The Inflammation score is 1 in assay [1] (injection site: LTB4 500 ng); 1 and 2 in assay [1] (injection site: LTB4 1000 ng); 1-2 and 1 in assay [1] (injection site: LTB4 2000 ng); 1 in assay [1] (injection site: LTB-ap 500 ng); 1 and 2 in assay [1] (injection site: LTB-ap 1000 ng); 1 and 2 in assay [1] (injection site: LTB-ap 2000 ng). Also, in assay [1] (injection site: Vehicle 0 ng), the Inflammation score is 0 and 1. For the same molecule, the “Histopathology finding: reduction of inflammation and edema” value (“Histopathology finding: reduction” for short) in assay [1] was “meaningful reduction in the severity of the inflammatory cell infiltration and less edema”.

Take `CC[C@@H]1C(C)=NN=C(c2ccc(OC)c(OC)c2)c2cc(OC)c(OC)cc21` [(S)-tofisopam, (S)-1-(3,4-dimethoxyphenyl)-4-methyl-5-ethyl-7,8-dimethoxy-5H-2,3-benzodiazepine]: the Edema score is 2 in assay [1] (injection site: LTB4 500 ng); 3 and 4 in assay [1] (injection site: LTB4 1000 ng); 2 and 4 in assay [1] (injection site: LTB4 2000 ng); 2 and 3 in assay [1] (injection site: LTB-ap 500 ng); 3 and 4 in assay [1] (injection site: LTB-ap 1000 ng); 2 and 1 and 4 in assay [1] (injection site: LTB-ap 2000 ng). Moreover, the Edema score result in assay [1] (injection site: Vehicle 0 ng) was “T and 1”. The Inflammation score in assay [1] (injection site: LTB4 500 ng) is 1 and 2; in assay [1] (injection site: Vehicle 0 ng), “T and 1”. In assay [1], the “Histopathology finding: reduction” value is “no meaningful reduction in the inflammation and edema”.

Regarding `CCC1C(C)=NN=C(c2ccc(OC)c(OC)c2)c2cc(OC)c(OC)cc21` (racemic) [Racemic tofisopam, Racemic-1-(3,4-dimethoxyphenyl)-4-methyl-5-ethyl-7,8-dimethoxy-5H-2,3-benzodiazepine], the Mitogen-induced lymphocyte proliferation result in assay [2] is “enhances”. Besides, in assay [3], the “Binding to peripheral BZ receptors” value was “binds only weakly”. Moreover, the IL-2 production entry in assay [4] was “enhances”. For the same molecule, the Inflammation score in assay [1] (injection site: LTB4 500 ng) is 2; in assay [1] (injection site: LTB4 1000 ng, listed as (R,S)-tofisopam), 3 and 2; in assay [1] (setting [6]) it was 2 and 1 and 3; in assay [1] (injection site: LTB-ap 500 ng), 2; in assay [1] (injection site: LTB-ap 1000 ng), 3; in assay [1] (setting [7]), 2 and 1. This molecule showed an Inflammation score in assay [1] (injection site: Vehicle 0 ng) of 1. The Edema score in assay [1] (injection site: LTB4 500 ng, listed as (R,S)-tofisopam) is 2 and 3; in assay [1] (injection site: LTB4 1000 ng), 3; in assay [1] (setting [6]), 2 and 1 and 3; in assay [1] (injection site: LTB-ap 500 ng, listed as (R,S)-tofisopam), 2 and 3; in assay [1] (injection site: LTB-ap 1000 ng), 3; in assay [1] (setting [7]), 2 and 1 and 3. In assay [1] (injection site: Vehicle 0 ng, listed as (R,S)-tofisopam), the Edema score is 2 and 1. In addition, the “Histopathology finding: reduction” value in assay [1] is “no meaningful reduction in the inflammation and edema”. In assay [5], the “Interaction with central BZ receptors” value is reported as “does not interact”.
